Molecular target: HPK1 (Homo sapiens (Human), UniProt Q92918, S171E/T165E)
Test: HPK1-FL HTRF Enzymatic Assay (HTRF)
Type: biochemical
Settings: HPK full length T165E S171E 0.125 nM, ATP 1 mM, Biotin-SLP76 100 nM, read-out: HPK1 Ki (nM), H = HTRF
Protocol: Exemplary compounds of Formula (I) were tested to assess compound inhibition of HPK-1. The Ki for each exemplary compound was determined
Example B1: HPK1-FL HTRF Enzymatic Assay (“HTRF”)
HPK-FL enzyme phosphorylates Biotin-SLP-76 substrate in the presence of ATP at 1 mM and varying concentrations of test compound. Product is detected by FRET using Eu-anti-pSLP76 Ab and SA-XL665. Also see www.cisbio.com/HTRF for additional HTRF technology information.
• Echo555 compound dispenser • Agilent Bravo • Perkin Elmer Envision Final Assay Conditions:
Materials: • Assay plate: White ProxiPlate 384 F (PerkinElmer cat #6008289) • Kinase: HPK full length double mutant • Substrate: Biotin-SLP76 • ATP: 100 mM ATP • BSG: 2% BSG • DMSO: DMSO (Sigma cat #34869-100ML) • Reaction Buffer: H2O/50 mM HEPES, pH 7.5/10 mM MgCl2/2 mM TCEP/0.01% Brij-35/0.01% BSG • Detection mix:Eu-anti-pSLP76/SA-XL665 (Cisbio, #610SAXAC) Assay Procedure Ki determination:
To a 384 well Proxiplate with 80 nL compound or DMSO spotted on was added 4 μl/well kinase mix. The mixture was preincubated for 30 minutes and then 4 μl/well substrate mix was added. The solution was incubated for 60 min and then 4 μl/well detection mix was added. The solution was incubated for another 60 min. The plates were then loaded onto a Perkin Elmer Envision and the TR-FRET signal was measured at 615 and 665 nm. A ratio of […] was used to calculate the % activity at each concentration of compound.

Chain of HPK1 (Q92918 whole entry T165E/S171E): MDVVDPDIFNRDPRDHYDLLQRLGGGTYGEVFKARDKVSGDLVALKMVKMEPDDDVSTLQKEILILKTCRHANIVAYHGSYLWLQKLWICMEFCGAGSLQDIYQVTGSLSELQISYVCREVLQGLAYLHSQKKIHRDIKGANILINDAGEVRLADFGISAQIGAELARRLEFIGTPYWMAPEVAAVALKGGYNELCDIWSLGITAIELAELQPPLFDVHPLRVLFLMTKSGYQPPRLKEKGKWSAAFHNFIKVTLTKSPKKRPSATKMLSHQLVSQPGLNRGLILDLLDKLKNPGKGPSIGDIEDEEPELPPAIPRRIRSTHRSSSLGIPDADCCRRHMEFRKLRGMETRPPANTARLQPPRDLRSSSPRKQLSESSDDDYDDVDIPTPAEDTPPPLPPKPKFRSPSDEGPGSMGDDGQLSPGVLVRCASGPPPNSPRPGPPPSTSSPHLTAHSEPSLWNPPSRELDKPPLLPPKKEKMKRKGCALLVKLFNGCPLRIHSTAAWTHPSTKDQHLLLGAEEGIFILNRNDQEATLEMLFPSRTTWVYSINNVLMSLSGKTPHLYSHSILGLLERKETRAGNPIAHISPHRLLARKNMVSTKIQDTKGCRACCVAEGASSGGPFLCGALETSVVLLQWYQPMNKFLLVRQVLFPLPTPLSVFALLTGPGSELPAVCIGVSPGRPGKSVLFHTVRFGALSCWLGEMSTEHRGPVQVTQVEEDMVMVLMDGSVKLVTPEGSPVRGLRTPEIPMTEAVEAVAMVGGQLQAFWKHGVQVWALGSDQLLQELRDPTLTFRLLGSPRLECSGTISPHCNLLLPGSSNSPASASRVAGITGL

Row | Compound | Ki
1 | Cc1c(-c2cc3cc(Nc4cc5n(n4)CC(=O)NCC5)ncc3cc2F)cnc2c1NCCC2 [Compound 192, 2-((7-fluoro-6-(4-methyl-5,6,7,8-tetrahydro-1,5-naphthyridin-3-yl)isoquinolin-3-yl)amino)-5,6-dihydro-4H-pyrazolo[1,5-d][1,4]diazepin-7(8H)-one] | 0.018 nM
2 | CNCc1ccc(F)c(-c2ccc3cnc(Nc4cc5n(n4)CC(=O)N(C)CC5)cc3c2)c1C [Compound 219, 2-((6-(6-fluoro-2-methyl-3-((methylamino)methyl)phenyl)isoquinolin-3-yl)amino)-6-methyl-5,6-dihydro-4H-pyrazolo[1,5-d][1,4]diazepin-7(8H)-one] | 7 nM
3 | CN[C@H]1CCN(c2cc(C)c(-c3cc4cc(Nc5cc6n(n5)CC(=O)N(C)CC6)ncc4cc3F)cn2)C1 (single isomer, unassigned) [Compound 206b] | 6.2 nM
4 | Cc1c(N)cncc1-c1cc2cc(Nc3cc4n(n3)CC(=O)N(CC(C)(C)O)CC4)ncc2cc1F [Compound 158, 2-((6-(5-amino-4-methylpyridin-3-yl)-7-fluoroisoquinolin-3-yl)amino)-6-(2-hydroxy-2-methylpropyl)-5,6-dihydro-4H-pyrazolo[1,5-d][1,4]diazepin-7(8H)-one] | 0.023 nM
5 | Cc1c(-c2cc3cc(Nc4cc5n(n4)Cc4nccn4CC5)ncc3cc2F)cnc2c1NCC[C@@H]2O (single isomer, unassigned) [Compound 243a] | 0.013 nM
6 | Cc1c(N)cncc1-c1cc2cc(Nc3cc4n(n3)Cc3nccn3CC4)ncc2c(F)c1F [Compound 157, N-(6-(5-amino-4-methylpyridin-3-yl)-7,8-difluoroisoquinolin-3-yl)-5,6-dihydro-11H-imidazo[1,2-a]pyrazolo[1,5-d][1,4]diazepin-8-amine] | 0.014 nM
7 | Cc1c(N)cncc1-c1cc2cc(Nc3cc4n(n3)CC(=O)N(C(C)(C)C)CC4F)ncc2cc1F (single isomer, unassigned) [Compound 167b] | 0.013 nM
8 | Cc1c(-c2cc3cc(Nc4cc5n(n4)CC(=O)N(C(C)C)C[C@H]5O)ncc3cc2F)cnc2c1NCCO2 (single isomer, unassigned) [Compound 141a] | 0.033 nM
9 | Cc1c(-c2cc3cc(Nc4cc5n(n4)CC(=O)NCC5)ncc3cc2F)cnc2c1NCCOC2 [Compound 230, 2-((7-fluoro-6-(9-methyl-1,2,3,5-tetrahydropyrido[3,2-e][1,4]oxazepin-8-yl)isoquinolin-3-yl)amino)-5,6-dihydro-4H-pyrazolo[1,5-d][1,4]diazepin-7(8H)-one] | 0.793 nM
10 | Cc1ccncc1-c1cc2cc(Nc3cc4n(n3)CC3=NOC(C)(C)N3CC4)ncc2cc1F [Compound 134, N-(7-fluoro-6-(4-methylpyridin-3-yl)isoquinolin-3-yl)-3,3-dimethyl-5,6-dihydro-3H,11H-[1,2,4]oxadiazolo[4,3-a]pyrazolo[1,5-d][1,4]diazepin-8-amine] | 3.4 nM
11 | Cc1c(-c2cc(F)c3cnc(Nc4cc5n(n4)CC(=O)N(C)CC5)cc3c2)cnc2c1NCC[C@@]2(C)O (single isomer, unassigned) [Compound 231a] | 1.3 nM
12 | Cc1c(N)cncc1-c1cc2cc(Nc3cc4n(n3)CC(=O)N(CCO)CC4)ncc2cc1F [Compound 159, 2-((6-(5-amino-4-methylpyridin-3-yl)-7-fluoroisoquinolin-3-yl)amino)-6-(2-hydroxyethyl)-5,6-dihydro-4H-pyrazolo[1,5-d][1,4]diazepin-7(8H)-one] | 0.015 nM
13 | Cc1c(NS(=O)(=O)C2CC2)cncc1-c1cc2cc(Nc3cc4n(n3)CC(=O)N(C)CC4)ncc2cc1F [Compound 197, N-(5-(7-fluoro-3-((6-methyl-7-oxo-5,6,7,8-tetrahydro-4H-pyrazolo[1,5-d][1,4]diazepin-2-yl)amino)isoquinolin-6-yl)-4-methylpyridin-3-yl)cyclopropanesulfonamide] | 4.1 nM
14 | Cc1c(-c2cc3cc(Nc4cc5n(n4)Cc4nccn4CC5)ncc3c(F)c2F)cnc2c1NCCO2 [Compound 161, N-(7,8-difluoro-6-(8-methyl-2,3-dihydro-1H-pyrido[2,3-b][1,4]oxazin-7-yl)isoquinolin-3-yl)-5,6-dihydro-11H-imidazo[1,2-a]pyrazolo[1,5-d][1,4]diazepin-8-amine] | 0.014 nM
15 | Cc1c(-c2cc3cc(Nc4cc5n(n4)CC(=O)NCC5)ncc3cc2F)cnc2c1NCCC2=O [Compound 196, 2-((7-fluoro-6-(4-methyl-8-oxo-5,6,7,8-tetrahydro-1,5-naphthyridin-3-yl)isoquinolin-3-yl)amino)-5,6-dihydro-4H-pyrazolo[1,5-d][1,4]diazepin-7(8H)-one] | 0.1 nM
16 | Cc1cc(S(C)(=N)=O)ncc1-c1cc2cc(Nc3cc4n(n3)CC(=O)N(C)CC4)ncc2cc1F (stereo not shown) [Compound 178, 2-((7-fluoro-6-(4-methyl-6-(S-methylsulfonimidoyl)pyridin-3-yl)isoquinolin-3-yl)amino)-6-methyl-5,6-dihydro-4H-pyrazolo[1,5-d][1,4]diazepin-7(8H)-one] | 23.7 nM
17 | Cc1c(-c2cc3cc(Nc4cc5n(n4)CC(=O)N(C)CC5)ncc3cc2F)cnc2c1C(O)CCO2 (single isomer, unassigned) [Compound 180a, 2-((7-Fluoro-6-(4-hydroxy-5-methyl-3,4-dihydro-2H-pyrano[2,3-b]pyridine-6-yl)isoquinolin-3-yl)amino)-6-methyl-5,6-dihydro-4H-pyrazolo[1,5-d][1,4]diazepin-7(8H)-one] | 0.05 nM
18 | Cc1c(N)cncc1-c1cc2cc(Nc3cc4n(n3)CC(=O)N(C)C[C@@]4(C)O)ncc2cc1F (single isomer, unassigned) [Compound 185a] | 0.169 nM
19 | Cc1c(N)cncc1-c1cc2cc(Nc3cc4n(n3)CC3=NOC(C)(C)N3CC4)ncc2cc1F [Compound 166, N-(6-(5-amino-4-methylpyridin-3-yl)-7-fluoroisoquinolin-3-yl)-3,3-dimethyl-5,6-dihydro-3H,11H-[1,2,4]oxadiazolo[4,3-a]pyrazolo[1,5-d][1,4]diazepin-8-amine] | 0.12 nM
20 | Cc1c(N)cncc1-c1cc2cc(Nc3cc4n(n3)C[S+]([O-])CC4)ncc2cc1F (racemic) [Compound 191, (+/-)-2-((6-(5-amino-4-methylpyridin-3-yl)-7-fluoroisoquinolin-3-yl)amino)-4,5-dihydro-7H-pyrazolo[1,5-c][1,3]thiazine 6-oxide] | 2.6 nM
21 | CN1CCc2cc(Nc3cc4cc(-c5cncc6c5CCC6O)c(F)cc4cn3)nn2CC1=O (racemic) [Compound 214, (+/-)-2-((7-fluoro-6-(7-hydroxy-6,7-dihydro-5H-cyclopenta[c]pyridin-4-yl)isoquinolin-3-yl)amino)-6-methyl-5,6-dihydro-4H-pyrazolo[1,5-d][1,4]diazepin-7(8H)-one] | 9 nM
22 | Cc1ccncc1-c1ccc2cnc(Nc3cc4n(n3)CC(=O)N(C(C)C)CC4)cc2c1 [Compound 122, 6-isopropyl-2-[[6-(4-methyl-3-pyridyl)-3-isoquinolyl]amino]-5,8-dihydro-4H-pyrazolo[1,5-d][1,4]diazepin-7-one] | 1 nM
23 | CN1CCc2cc(Nc3cc4cc(-c5cccc6c5CNC6)c(F)cc4cn3)nn2CC1=O [Compound 215, 2-((7-fluoro-6-(isoindolin-4-yl)isoquinolin-3-yl)amino)-6-methyl-5,6-dihydro-4H-pyrazolo[1,5-d][1,4]diazepin-7(8H)-one] | 364 nM
24 | COCCN1CCc2cc(Nc3cc4cc(-c5cnc6c(c5C)NCCO6)c(F)cc4cn3)nn2CC1=O [Compound 155, 2-((7-fluoro-6-(8-methyl-2,3-dihydro-1H-pyrido[2,3-b][1,4]oxazin-7-yl)isoquinolin-3-yl)amino)-6-(2-methoxyethyl)-5,6-dihydro-4H-pyrazolo[1,5-d][1,4]diazepin-7(8H)-one] | 0.013 nM
25 | Cc1cc(C2CCCCO2)ncc1-c1cc2cc(Nc3cc4n(n3)CC(=O)N(C)CC4)ncc2cc1F (racemic) [Compound 218, (+/-)-2-((7-fluoro-6-(4-methyl-6-(tetrahydro-2H-pyran-2-yl)pyridin-3-yl)isoquinolin-3-yl)amino)-6-methyl-5,6-dihydro-4H-pyrazolo[1,5-d][1,4]diazepin-7(8H)-one] | 9 nM
26 | Cc1c(-c2cc3cc(Nc4cc5n(n4)CC(=O)N(C)CC5)ncc3cc2F)cnc2c1N(C)CCO2 [Compound 162, 2-((6-(1,8-dimethyl-2,3-dihydro-1H-pyrido[2,3-b][1,4]oxazin-7-yl)-7-fluoroisoquinolin-3-yl)amino)-6-methyl-5,6-dihydro-4H-pyrazolo[1,5-d][1,4]diazepin-7(8H)-one] | 0.43 nM
27 | Cc1c(-c2cc3cc(Nc4cc5n(n4)CC(=O)N(CCO)CC5)ncc3cc2F)cnc2c1NCCO2 [Compound 145, 2-((7-fluoro-6-(8-methyl-2,3-dihydro-1H-pyrido[2,3-b][1,4]oxazin-7-yl)isoquinolin-3-yl)amino)-6-(2-hydroxyethyl)-5,6-dihydro-4H-pyrazolo[1,5-d][1,4]diazepin-7(8H)-one] | 0.013 nM
28 | Cc1c(-c2cc3cc(Nc4cc5n(n4)CC(=O)N([C@@H](C)C#N)CC5)ncc3cc2F)cnc2c1NCCO2 (single isomer, unassigned) [Compound 147a] | 0.014 nM
